This is an account of results in ChEMBL document CHEMBL1201862, “PubChem BioAssay data set” (2004).

Holding throughout (assay): NCI anticancer screen, dose series, 48 h
Assay [1] relates to SNB-75.
Assay [2] concerns A549.
Assay [3] deals with SW-620.
The subject of assay [4] is T47D.
In assay [5] the test system is HCC 2998.
The test system of assay [6] is OVCAR-8.
Assay [7] concerns NCI/ADR-RES.
The test system of assay [8] is SF-268.
In assay [9] the test system is OVCAR-4.
The test system of assay [10] is NCI-H226.
In assay [11] the test system is HCT-116.
In assay [12] the test system is MDA-N.
Assay [13] relates to UACC-62.
The subject of assay [14] is SK-MEL-5.
For assay [15], the system named is HOP-62.
In assay [16] the test system is K562.
Assay [17] relates to NCI-H23.
The test system of assay [18] is A498.
The test system of assay [19] is SF-539.
Assay [20] relates to COLO 205.

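Test compounds were applied to cells in 96-well plates for 48 hours at 5 doses. Here, GI50 denotes the concentration required for 50% inhibition of growth.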 The source made the active and inactive calls. No stated cut-off is given here; in the data, active = GI50 up to about 1.1 µM and inactive = higher.

On to `c1ccc2sc(SCSc3nc4ccccc4s3)nc2c1`, for which the GI50 in assay [1] is > 100 µM (inactive); in assay [2], 81.3 µM (inactive); in assay [3], 96.8 µM (inactive); in assay [4], > 100 µM (inactive); in assay [5], 75.9 µM (inactive); in assay [6] it was > 100 µM (inactive). For the same compound, the GI50 in assay [7] was 94 µM (inactive); in [8], > 100 µM (inactive); in assay [9] it was > 100 µM (inactive); in [10], > 100 µM (inactive); in assay [11], 34.1 µM (inactive); in assay [12] it was 76.2 µM (inactive). Besides, the GI50 is 71 µM (inactive) in [13]; 30.1 µM (inactive) in assay [14]; > 100 µM (inactive) in assay [15]; 31.1 µM (inactive) in assay [16]; 70.3 µM (inactive) in assay [17]; > 100 µM (inactive) in assay [18].

Turning to `O=C(O)C(Cc1ccc(O)c([N+](=O)[O-])c1)N1C(=O)c2ccccc2C1=O` (centres undefined), the GI50 in [1], in assay [2], in assay [3], in assay [4], in [6] and in assay [7] was > 100 µM (inactive) throughout. The GI50 in assay [8], in assay [9], in assay [10], in assay [19], in [11] and in assay [12] was > 100 µM (inactive) throughout. In addition, the GI50 in [13], in [14], in assay [15], in assay [16], in assay [17] and in assay [18] was > 100 µM (inactive) in each case. Moreover, the GI50 in assay [20] was > 100 µM (inactive).

In the case of `CN(C)CC(C)(C)CN1c2ccccc2Sc2ccccc21`, the GI50 was 4.28 µM (inactive) in assay [1]; 15.5 µM (inactive) in [2]; 15 µM (inactive) in [3]; 14.2 µM (inactive) in [4]; 15.3 µM (inactive) in [6]; 12.7 µM (inactive) in assay [7]. The GI50 in [8] was 14.5 µM (inactive); in assay [9], 12.9 µM (inactive); in assay [10], 18 µM (inactive); in assay [19], 19.7 µM (inactive); in [11], 13.8 µM (inactive); in assay [12], 15 µM (inactive). For the same compound, the GI50 in assay [13] is 14.9 µM (inactive); in assay [14], 16 µM (inactive); in assay [15], 12.9 µM (inactive); in assay [16] it was 8.55 µM (inactive); in [17] it was 16.4 µM (inactive); in [18], 13.6 µM (inactive). Besides, the GI50 in assay [20] was 12.2 µM (inactive).

`C/C1=C/C(C)CC(C)OC(=O)C(C)NC(=O)C(Cc2ccc(O)c(I)c2)N(C)C(=O)CNC(=O)C(C)C1` (centres undefined): the GI50 in assay [1] was < 0.01 µM (active); in [2], < 0.01 µM (active); in assay [3], < 0.01 µM (active); in [4] it was 0.229 µM (active); in assay [5], < 0.01 µM (active); in assay [6], 0.0306 µM (active). For the same compound, the GI50 in assay [7] was 0.0313 µM (active); in [8], < 0.0186 µM (active); in assay [9] it was < 0.01 µM (active); in assay [19] it was < 0.01 µM (active); in assay [11], < 0.01 µM (active); in assay [12], < 0.01 µM (active). The GI50 was < 0.01 µM (active) in assay [14]; < 0.01 µM (active) in assay [15]; < 0.01 µM (active) in assay [16]; 0.409 µM (active) in [17]; < 0.01 µM (active) in assay [18]; < 0.01 µM (active) in assay [20].

Consider `CCOC(=O)N/N=C(\CC)NO`, for which the GI50 in assay [2], in assay [3], in assay [4], in [5], in assay [6] and in assay [7] was > 100 µM (inactive) each time. For the same compound, the GI50 in assay [8], in assay [9], in assay [10], in [19], in assay [11] and in assay [12] was > 100 µM (inactive) in each case. Moreover, the GI50 in [13], in assay [14], in assay [15], in assay [16], in assay [17] and in [18] was > 100 µM (inactive) throughout. For the same compound, in [20], the GI50 is > 100 µM (inactive).

`CCCCC(O)(c1ccccc1)C(O)(c1ccccc1)c1c(F)c(F)c(F)c(F)c1F` (centres undefined): the GI50 was 37.2 µM (inactive) in [1]; 28.4 µM (inactive) in assay [2]; 25.2 µM (inactive) in assay [3]; 35.4 µM (inactive) in [4]; 15.7 µM (inactive) in assay [5]; 22.1 µM (inactive) in assay [6]. The GI50 in [7] is 19.5 µM (inactive); in assay [8] it was 20 µM (inactive); in assay [9] it was 44.4 µM (inactive); in assay [10] it was 26 µM (inactive); in assay [11], 18.1 µM (inactive); in assay [12] it was 17.9 µM (inactive). The GI50 is 17.4 µM (inactive) in assay [13]; 18.4 µM (inactive) in [14]; 17.5 µM (inactive) in [15]; 27.4 µM (inactive) in assay [16]; 29 µM (inactive) in assay [17]; 25.5 µM (inactive) in assay [18]. Further, in [20], the GI50 is > 10 µM (inactive).

In the case of `c1ccc2c(c1)nc1ccccn12`, the GI50 in [1], in [2], in assay [3], in [4], in assay [5] and in assay [6] was > 100 µM (inactive) throughout. Also, the GI50 in assay [7], in [8], in assay [10], in assay [19], in [11] and in [12] was > 100 µM (inactive) in each case. Moreover, the GI50 is > 100 µM (inactive) in [13]; > 100 µM (inactive) in assay [14]; > 100 µM (inactive) in assay [15]; > 100 µM (inactive) in assay [16]; > 100 µM (inactive) in [17]; 1.37 µM (inactive) in assay [18]. The GI50 in [20] was > 100 µM (inactive).

With `Nn1c(SCC(=O)NCc2ccccc2)nc2ccccc2c1=O`, the GI50 is > 100 µM (inactive) in assay [1]; 31.3 µM (inactive) in assay [2]; 57 µM (inactive) in assay [3]; > 100 µM (inactive) in assay [4]; 44.8 µM (inactive) in [5]; 40.6 µM (inactive) in assay [6]. Also, the GI50 in assay [7] was 36.5 µM (inactive); in assay [8], 38.2 µM (inactive); in [9], 54.2 µM (inactive); in [10], 79.1 µM (inactive); in [19] it was > 100 µM (inactive); in [11], 29.4 µM (inactive). The GI50 was 38.9 µM (inactive) in [12]; 41.6 µM (inactive) in assay [13]; 41 µM (inactive) in assay [14]; 27.8 µM (inactive) in [16]; 82.8 µM (inactive) in assay [17]; 61.2 µM (inactive) in [18]. For the same compound, the GI50 in [20] is 48.5 µM (inactive).

For the compound `CCOP(=O)(OCC)[C@H]1OC(C)(C)O[C@@H]1CO`, the GI50 in assay [2], in assay [3], in [4], in assay [5], in [6] and in assay [7] was > 100 µM (inactive) in each case. Moreover, the GI50 in assay [8], in assay [9], in [19], in assay [11], in [12] and in assay [13] was > 100 µM (inactive) each time. Further, the GI50 in [14], in assay [15], in assay [17], in assay [18] and in assay [20] was > 100 µM (inactive) in each case.

As for `COc1ccc(C2CC3(c4ccccc4)ON=C(c4ccccc4)N3c3ccccc3S2)cc1` (centres undefined), the GI50 in assay [1], in assay [2], in [3], in assay [4], in assay [5] and in [6] was > 100 µM (inactive) each time. In addition, the GI50 in assay [7], in [8], in assay [9], in assay [10], in [19] and in assay [11] was > 100 µM (inactive) in each case. Besides, the GI50 in assay [12], in assay [13], in [14], in [15], in assay [17] and in assay [18] was > 100 µM (inactive) in each case. The GI50 in assay [20] was > 100 µM (inactive).

Regarding `O=C1NC2CCCCC2N=C1CC(=O)c1ccc(Br)cc1` (centres undefined), the GI50 in [2] is 6 µM (inactive); in assay [3], > 100 µM (inactive); in assay [4] it was 3.94 µM (inactive); in [5], 39 µM (inactive); in [6], 4.19 µM (inactive); in assay [7], 4.07 µM (inactive). The GI50 in [8] was 28.6 µM (inactive); in assay [10], 4.22 µM (inactive); in assay [19], 26.8 µM (inactive); in assay [11], 66.2 µM (inactive); in assay [12] it was > 100 µM (inactive); in assay [13], 4.57 µM (inactive). In addition, the GI50 in assay [14] is > 100 µM (inactive); in assay [15], 31.8 µM (inactive); in [16], > 100 µM (inactive); in assay [17], > 100 µM (inactive); in assay [18], > 100 µM (inactive); in assay [20], > 100 µM (inactive).
